The test system of experiment [1] is Thromboxane-Synthesizing Enzyme. In words: Thromboxane-synthesizing enzyme-inhibitory activity (MDA production in platelet-rich plasma after oral dosing). The format is in vivo, rat (Wistar strain). The settings on record: rat, 3 mg/kg, blood after one hour. As for the experimental part:
(§1) The compounds of this invention to be tested were used in the form of a hydrochloride.
To a rat (Wistar strain, male, 300-350 g, 4 heads per group) which had been starved overnight was orally administered a test compound solution, and blood was collected from the abdominal aorta using citric acid after one hour. Two milliliters of a 1×10^9 /ml platelet-rich plasma (PRP) was preincubated at 37° C. for 2 minutes. Subsequently, 0.1 ml of 10 mM sodium archidonate was added, and the resulting mixture was subjected to reaction for 6 minutes, after which indomethacin was added thereto to terminate the reaction. The reaction mixture was subjected to deproteinization treatment and reacted with thiobarbituric acid (TBA) reagent, after which the reaction mixture was subjected to extraction with 3 ml of n-butanol. The resulting extract was subjected to colorimetry (λ=532 nm) to determine the amount of malondialdehyde (MDA) produced. As to the platelet-poor plasma (PPP) obtained from the same rat as above, the same procedure as above was repeated to determine the amount of MDA produced, and the difference between the two is indicated as MDA value. Comparing with the MDA values of the control group, the MDA production-inhibition (%) was determined.
The test compounds 1-9 were adjusted to the desired concentrations with water and the test compounds 11-33 and nicardipine were adjusted to a concentration of 5 mg/ml with an aqueous solution containing 10% of each of dimethyl sulfoxide and Cremophor and then diluted with water to the desired concentrations.

In experiment [2] the test system is vertebral artery blood flow of a dog. Briefly: Vertebral artery blood flow increasing activity. The format is in vivo, dog (mongrel). The settings on record: i.v., amount with same activity as 1 mg/kg (i.v.) papaverine hydrochloride, ratio to papaverine hydrochloride. The protocol:
as §1
The vertebral artery blood flow of a dog (mongrel, 12-22 kg, 2-3 heads per group) anesthetized with pentobarbital sodium (30 mg/kg, i.v.) was measured by means of an electromagnetic flow meter (MFV-2100 manufactured by Nihon Kohden Kogyo).
The test compounds 1, 3 and 10 were adjusted to a concentration of 1 mg/ml with distilled water, and then diluted with a saline solution to the desired concentrations, after which the thus diluted solutions were intravenously administered, and the test compounds 12, 15, 18, 19, 20, 24, 29, 30, 32 and 33 were formed into solutions in the same manner as in Item 1 above and then intravenously administered.

The test system of experiment [3] is coronary vessel (isolated guinea pig heart). In words: Coronary vasodilating activity (isolated perfused guinea pig heart, coronary effluent). Set-up: species or system guinea pig (Hartley strain). As to conditions: Langendorff perfusion, 0.1 ml into aorta, hydrochloride. The protocol: as §1
The heart of a guinea pig (Hartley strain, male, 500-700 g, 3 heads per group) was isolated and set in the Landendorff perfusing apparatus. About 0.5% defibrinated blood was fed to the apparatus, and the Krebs bicarbonate solution, into which a mixed gas consisting of 95% of O2 and 5% of CO2 had been bubbled was perfused over the heart, after which a 1 mg/ml solution of the test compound in an aqueous solution containing 10% by volume of dimethylsulfoxide and 10% of polyoxyethylfatty acid glyceride [Cremophor EL manufactured by Sigma] was prepared, diluted with a saline solution to the desired concentration, and then administered into the heart in an amount of 0.1 ml through the rubber tube attached to the cannula inserted retrogressively into the aorta. The vasodilating activity was determined by measuring the amount of the solution effluent from the coronary vessel after passing through the aorta by means of an electric drop counter (universal drop counter manufactured by Natsume Seisakusho) and indicated as ED50 value which is the amount necessary for the amount of the effluent solution to increase 50% as compared with those before addition of the test compound.

In experiment [4] the test system is mouse pulmonary infraction model. Briefly: Antithrombosis activity, mouse pulmonary infraction model, prevention of death and paralysis (0.10 ml epinephrine/collagen). The format is in vivo, mouse (ICR strain). As to conditions: 1 h; mouse, oral, 10 mg/kg, challenge after one hour; control 25.7%; read-out: Preventive percentage of death + paralysis for 10 minutes or more. As for the experimental part: as §1
According to the G. DiMinno and M. J. Silver method [J. Pharmacol. Exp. Therap., 225 (1) 57-60 (1983)], a solution of the compound to be tested was orally administered to a mouse (ICR strain, male, 4 weeks old), and 0.15 ml of a mixed solution of epinephrine (100 μM) and collagen (150 μg/ml) was intravenously administered to the mouse after one hour, after which the paralytic time was measured. Comparing the paralytic time of the control group, the paralytic time-shortening percentage due to the compound to be tested was determined. The results obtained are shown in Table 4, in which the case where the paralytic time was 15 minutes was calculated as death.
Moreover, the same experiment was repeated, except that 0.10 ml of a mixed solution of epinephrine (100 μM) and collagen (150 μg/ml) was intravenously administered to the mouse and the effect of preventing the appearance of death and a case where the paralytic time was 10 minutes or more was checked and the results thereof are shown in Table 5.
The test compounds shown in Table 4 were adjusted to the desired concentrations with water, and the test compounds shown in Table 5 were adjusted to a concentration of 5 mg/ml with an aqueous solution containing 10% by volume of each of dimethyl sulfoxide and Cremophor, and then diluted with water to the desired concentrations.

The compound `COCCOC(=O)C1=C(C)NC(C)=C(C(=O)OCCN(C)C/C(C)=C/c2ccc(Cc3cccnc3)cc2)C1c1cccc([N+](=O)[O-])c1` (centres unmarked) [compound 3] returned an MDA production-inhibition in experiment [1] of 65.8%. In addition, the Effect ratio in experiment [2] came to 385.
Take `CCOC(=O)C1=C(C)NC(C)=C(C(=O)OCC(C)(C)COC/C(C)=C/c2ccc(Cc3cccnc3)cc2)C1c1cccc([N+](=O)[O-])c1` (centres unmarked) [compound 33]: in experiment [1], the MDA production-inhibition is on record as 41.5%. Further, in experiment [2], the Effect ratio is 333.
Compound `CCOC(=O)C1=C(C)NC(C)=C(C(=O)OCCSC/C=C/c2ccc(Cc3cccnc3)cc2)C1c1cccc([N+](=O)[O-])c1` (centres unmarked) [compound 28] yielded an MDA production-inhibition in experiment [1] of 31.2%.
Consider `COC(=O)C1=C(C)NC(C)=C(C(=O)OCCOC/C=C/c2ccc(Cc3cccnc3)cc2)C1c1cccc([N+](=O)[O-])c1` (centres unmarked) [compound 22], for which the “ED50 (amount necessary for the amount of the effluent solution to increase 50%)” value in experiment [3] is listed as 0.016 μg/i.c.
On the same count and under the same terms, in the case of `CCOC(=O)C1=C(C)NC(C)=C(C(=O)OCCOCc2ccc(Cn3ccnc3)cc2)C1c1cccc([N+](=O)[O-])c1` (centres unmarked) [compound 14] it was 0.023 μg/i.c.
For the compound `COC(=O)C1=C(C)NC(C)=C(C(=O)OCC(C)(C)COC/C(C)=C/c2ccc(Cc3cccnc3)cc2)C1c1cccc([N+](=O)[O-])c1` (centres unmarked) [compound 32], the Effect ratio in experiment [2] stood at 417.
Regarding `CCOC(=O)C1=C(C)NC(C)=C(C(=O)OCCOCCCc2ccc(Oc3cccnc3)cc2)C1c1cccc([N+](=O)[O-])c1` (centres unmarked) [compound 20], in experiment [3], the “ED50 (amount necessary for the amount of the effluent solution to increase 50%)” value amounted to 0.024 μg/i.c. Moreover, in experiment [2], the Effect ratio is on record as 535. In addition, the responders at 10 mg/kg in experiment [4] turned out to be 70%.
As for `CCOC(=O)C1=C(C)NC(C)=C(C(=O)OCC(C)COC/C(C)=C/c2ccc(Cc3cccnc3)cc2)C1c1cccc([N+](=O)[O-])c1` (centres unmarked) [compound 31], the MDA production-inhibition in experiment [1] was determined as 50.5%.
For `CCOC(=O)C1=C(C)NC(C)=C(C(=O)OCCOCCCc2ccc(Cn3ccnc3)cc2)C1c1cccc([N+](=O)[O-])c1` (centres unmarked) [compound 11], the MDA production-inhibition in experiment [1] was 37.8%.
In experiment [1], `CCOC(=O)C1=C(C)NC(C)=C(C(=O)OCCOC/C=C/c2ccc(Cn3ccnc3)cc2)C1c1cccc([N+](=O)[O-])c1` (centres unmarked) [compound 13] had an MDA production-inhibition of 47.2%. The “ED50 (amount necessary for the amount of the effluent solution to increase 50%)” value in experiment [3] turned out to be 0.036 μg/i.c.
With `CC1=C(C(=O)OCCOC/C=C/c2ccc(Cc3cccnc3)cc2)C(c2cccc([N+](=O)[O-])c2)C(C(=O)OC(C)C)=C(C)N1` (centres unmarked) [compound 24], in experiment [2], the Effect ratio turned out to be 286. Besides, the responders at 10 mg/kg in experiment [4] came out at 90%.
In experiment [1], `CCOC(=O)C1=C(C)NC(C)=C(C(=O)OCCOCCc2ccc(Cc3cccnc3)cc2)C1c1cccc([N+](=O)[O-])c1` (centres unmarked) [compound 27] showed an MDA production-inhibition of 35.7%. Further, the responders at 10 mg/kg in experiment [4] came out at 77.8%.
In the case of `COC(=O)C1=C(C)NC(C)=C(C(=O)OCCOC/C=C/c2ccc(Cc3cccnc3)cc2)C1c1ccccc1C(F)(F)F` (centres unmarked) [compound 26], the responders at 10 mg/kg in experiment [4] is 90%.
For `CC1=C(C(=O)OCCOC/C=C/c2ccc(Cc3cccnc3)cc2)C(c2cccc([N+](=O)[O-])c2)C(C(=O)OCCN(C)Cc2ccccc2)=C(C)N1` (centres unmarked) [compound 23], in experiment [3], the “ED50 (amount necessary for the amount of the effluent solution to increase 50%)” value came out at 0.019 μg/i.c.
`CCOC(=O)C1=C(C)NC(C)=C(C(=O)OCCOCc2ccc(Cc3cccnc3)cc2)C1c1cccc([N+](=O)[O-])c1` (centres unmarked) [compound 15]: the “ED50 (amount necessary for the amount of the effluent solution to increase 50%)” value in experiment [3] came out at 0.0092 μg/i.c. For the same compound, the Effect ratio in experiment [2] is given as 238.
In experiment [1], `CCOC(=O)C1=C(C)NC(C)=C(C(=O)OCCOCCCc2ccc(Cc3cccnc3)cc2)C1c1cccc([N+](=O)[O-])c1` (centres unmarked) [compound 18] yielded an MDA production-inhibition of 40.9%. For the same compound, the “ED50 (amount necessary for the amount of the effluent solution to increase 50%)” value in experiment [3] is listed as 0.026 μg/i.c. Moreover, the Effect ratio in experiment [2] is on record as 233.

The values are drawn from US4731370A, “Pyridyl ester containing 1,4-dihydropyridine derivatives and salts thereof and pharmaceutical composition containing the same” (Toyama Chemical Co., Ltd., priority 1984, dated 1988).
